The results in this text go back to article PMC7750480, “A hybrid approach reveals the allosteric regulation of GTP cyclohydrolase I” (Proceedings of the National Academy of Sciences of the …, 2020).

For test [1], the target named is T1, GCH1 (Homo sapiens, UniProt P30793).
T1 construct: The hGCH1 (42-250, N-terminal 6xHis Tag and TEV cleavage site); 6xHis (N); TEV cleavage site (N); made in house; host or cells: E. coli BL21(DE3)
T1 sequence (P30793 42-250): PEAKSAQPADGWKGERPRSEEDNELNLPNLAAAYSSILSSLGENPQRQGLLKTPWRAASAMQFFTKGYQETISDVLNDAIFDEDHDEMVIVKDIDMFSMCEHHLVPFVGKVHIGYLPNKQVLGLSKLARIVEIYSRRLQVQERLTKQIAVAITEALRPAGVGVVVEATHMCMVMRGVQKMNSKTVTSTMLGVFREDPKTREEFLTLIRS
Description: protein-detected NMR titration (1H,13C HMQC), wild-type GCH1. In kind it is binding. The method, then:
(§1) Finally, the F122A mutant was generated and characterized to check whether the structurally observed, F122-dependent closure of the active site plays a key role in GCH1 function. […] The fitted dissociation constant KD of GCH1 for the nonhydrolyzable GTP analog 7-deaza-GTP was determined by protein-detected NMR titrations. […] Therefore, the missing enzyme activity of the F122 mutant cannot be explained by reduced affinity to the substrate and must have other underlying causes.
(§2) Perdeuterated protein with selectively labeled protonated and ^13C-labeled alanine, isoleucine, leucine, and valine methyl groups {Ala^β-[^13CH3]; Ile^δ1-[^13CH3]; Leu^δ,Val^γ-[^12CD3/^13CH3]} was expressed as described in the literature ([64]). […] All spectra were recorded on a Bruker Avance III 800 MHz NMR spectrometer equipped with a cryogenic triple-resonance probe at 298 K. Fifty micromolars perdeuterated GCH1 monomer with selectively labeled methyl groups was dissolved in 1× PBS in D2O. The ^1H,^13C-HMQC spectra of the protein were recorded with increasing concentration of the nonhydrolyzable GTP analog 7-deaza-GTP up to a final concentration of 3.5 mM. Spectra were processed with Bruker Topspin 3.5 and analyzed using CcpNmr ([65]) analysis version 2. Chemical shift perturbation (CSP) was calculated using Eq. 1 and the binding curve was fitted using Eq. 2. […]

The target of the next test is T2, GCH1 F122A mutant (Homo sapiens, UniProt P30793, F122A).
T2 construct: The hGCH1 (42-250, N-terminal 6xHis Tag and TEV cleavage site); 6xHis (N); TEV cleavage site (N); made in house; host or cells: E. coli BL21(DE3)
T2 sequence (P30793 42-250 F122A): T1 sequence (P30793 42-250) with F81A
In words: protein-detected NMR titration (1H,13C HMQC), F122A mutant. In kind it is binding. The method, then: as §1, §2

The target of test [2] is T1, GCH1. In words: STD-NMR titration of 7-deaza-GTP to GCH1 (initial slopes of build-up curves). In kind it is binding. The text has this:
To shed more light onto the mechanism of BH4-induced inhibition of GCH1, we used saturation transfer difference (STD) NMR spectroscopy to study binding of the substrate analog 7-deaza-GTP to GCH1. STD-NMR can be used to determine the KD of ligands (feasible in the range between 10^−2 and 10^−6 M) and allows the making of qualitative statements about the change of ligand binding kinetics ([28]–[31]). STD-NMR experiments were based on a titration of 7-deaza-GTP to GCH1 in the presence or absence of BH4. We measured a series of STD build-up curves (i.e., STD effects at a constant ligand concentration but increasing saturation times) at each 7-deaza-GTP concentration for the protons H7 and H1′ of the substrate analog. From the concentration dependence of the initial build-up slopes, the dissociation constant as well as the maximum STD amplification for the monitored proton signal can be derived (Fig. 6 A and B).
Fig. 6. KD determination using initial slopes from STD-NMR build-up curves. (A) For each ligand concentration, a set of measurements was recorded applying different saturation times (tsat). To obtain STD-AFmax values and the saturation rate constants ksat from STD-NMR build-up curves, experimental STD-AF values were fit to a rising exponential: STD-AF = STD-AFmax (1−exp (−ksat tsat)). From the fitting parameters, initial build-up slopes (tsat = 0) were calculated: STD-AF0 = STD-AFmax ksat. These STD-AF0 values were plotted against the ligand concentration, yielding a binding isotherm from which KD can be derived by fitting the Langmuir binding model: STD-AF0 = Amax/(1+(KD/c)). Amax is a scaling factor representing the maximum STD amplification. Two different 7-deaza-GTP protons (H1′ and H7) were monitored in these experiments. (C) Assignment of relevant protons on structural formula of 7-deaza-GTP. TEXT PRINTED IN THE PICTURE: (B) H1': KD: 52 (5mM BH4); Amax: 732 (5mM BH4); KD: 326 (no BH4); Amax: 177 (no BH4) | (B) H7: KD: 157 (5mM BH4); Amax: 729 (5mM BH4); KD: 977 (no BH4); Amax: 400 (no BH4) DOUBTS OF THE COPYIST ABOUT THIS PICTURE: Panel B: the row labels H1' and H7 are monitored protons of one ligand (printed in panel A as 7da-GTP / 7-Deaza-GTP), not separate compounds; they are used as labels as printed / Panel B: no unit is printed for KD or Amax in the table
All NMR experiments were performed at 25 °C on a Bruker HD 600-MHz spectrometer equipped with a cryogenic QCI probe head. Deuterium oxide (D2O) NMR buffer solution containing 40 mM of a NaH2PO4 and Na2HPO4 mixture with 150 mM sodium chloride (NaCl) was adjusted to a pD of 7.4 (corrected). Suppression of broad protein resonances was achieved by a T1ρ filter ([60]), formed by a 50-ms spin lock pulse. STD-NMR spectra were acquired with WATERGATE water suppression using W5 hard pulse trains ([61]). Difference spectrum ligand signal intensities were divided by corresponding off-resonance spectrum signal intensities, resulting in relative STD intensity values. Multiplication by ligand excess factor yielded STD amplification factor (STD-AF) values ([28]). For selective protein signal saturation, a cascade of Gaussian-shaped pulses was applied. Series of measurements with different total saturation times (tsat) covering a range between 1.2 and 7.2 s were recorded for extraction of initial slopes from STD-AF build-up plots. An additional relaxation delay varying from 2.8 s to 0.4 s was inserted before the saturation cascade to keep constant the total time per scan. On-resonance irradiation was set to 0.16 parts per million (ppm), and off-resonance irradiation was set to 66 ppm. Depending on the ligand concentration, 64 to 1,024 scans were acquired for the STD experiments (32 to 512 scans each for on- and off-resonance). Considering the STD-AF to be directly proportional to the fraction of bound receptor gives rise to a hyperbolic dose–response curve (specific one-site binding model) when STD-AF values are measured with different ligand concentrations ([31]). […]

Test [3] has as its target T1, GCH1. Description: functional assay with 1H-NMR detection of formate. Type of test: biochemical. The method, then:
For the functional assay, each NMR sample was prepared with 10 μM GCH1 and 170 μM or 600 μM test compound. The PBS NMR buffer additionally contained 300 μM GTP (Cayman Chemical cat. no. 16060). After a reaction time of 45 min (25 °C), a certain amount of substrate molecules (GTP) has been converted by GCH1 into 7,8-Dihydroneopterin (H2NPT) and the by-product formate (deprotonated formic acid). For product detection, a WATERGATE 1H-NMR spectrum was recorded (128 scans). We used the integrated NMR signal of the formate α-proton at 8.33 ppm as a relative enzyme activity readout. The formate integral of a negative control sample (dimethyl sulfoxide) has been set to 100%. An inhibitory active test compound decreases the GTP turnover and leads to a reduced relative formate signal integral (% inhibition). DAHP was used as a positive control.
(§3) Supplemental Figure 6: Detection of product formation and STD NMR assay. A) Enzyme activity assay for GCH1 based on colorimetric detection of H2NTP or 1H-NMR detection of formate. […]
(§4) inhibitor (e.g. BH4). B) STD NMR is capable to detect GTP binding (green). Addition of another active site binder (8-oxo […]
STD NMR enhancement of substrate GTP in the presence of allosteric regulator BH4 (red). This screening assay allows for the identification of allosteric binders. […]

The next test deals with T3, GCH1 WT (Homo sapiens, UniProt P30793).
T3 construct: The hGCH1 (42-250, N-terminal 6xHis Tag and TEV cleavage site); 6xHis (N); TEV cleavage site (N); made in house; host or cells: E. coli BL21(DE3)
T3 sequence (P30793 42-250): T1 sequence (P30793 42-250)
In words: enzyme kinetics, H2NTP formation at 330 nm, WT GCH1. In kind it is biochemical. The conditions noted are these: colorimetric detection of H2NTP. On the procedure:
(§5) In order to test the role of the key residues H126, D127, E128, R235, and R241 involved in allosteric inhibitor binding and conformational change, various point mutants were prepared and tested for their ability to be stimulated and inhibited by effector molecules in the presence or absence of GFRP. […] Enzyme activity was evaluated using an activity assay measuring the formation of the product H2NTP at 330 nm with increasing GTP concentrations.
(§6) GTPCH-I specific enzyme activity was determined by spectrometric measuring of the concentration of its direct product H2NTP. Synergy H1 (BioTek Instruments) and Gen5 2.01 software were used to evaluate H2NTP concentration and the maximal turnover rate (Vmax) within each measuring interval. H2NTP concentration was measured at 330 nm over a measuring period of 2 h using a measuring interval of 2 min to 4 min at 37 °C. Samples were prepared using 2 μM GTPCH-I, varying concentrations of GTP (1 μM to 2,000 µM) and in the absence or presence of 15 mM phenylalanine, 0.1 mM BH4, or 3 μM GFRP. The assay buffer used was 50 mM Tris/HCl, pH 7.5, 100 mM KCl. The specific enzyme activity (A) was calculated using the path length of 0.15 cm and the extinction coefficient […] = 6,300 M^−1⋅cm^−1 H2NTP. […] All enzymatic data were, at least, measured in triplicate (n = 3).

Another test has as its target T4, R241A-GCH1 (Homo sapiens, UniProt P30793, R241A).
T4 construct: The hGCH1 (42-250, N-terminal 6xHis Tag and TEV cleavage site); 6xHis (N); TEV cleavage site (N); made in house; host or cells: E. coli BL21(DE3)
T4 sequence (P30793 42-250 R241A): T1 sequence (P30793 42-250) with R200A
Description: enzyme kinetics, H2NTP formation at 330 nm, R241A-GCH1. In kind it is biochemical. The note with it: in the absence and presence of GFRP; 0.1 mM BH4. On the procedure: as §5, §6

A further test addresses T5, R235A-GCH1 (Homo sapiens, UniProt P30793, R235A).
T5 construct: The hGCH1 (42-250, N-terminal 6xHis Tag and TEV cleavage site); 6xHis (N); TEV cleavage site (N); made in house; host or cells: E. coli BL21(DE3)
T5 sequence (P30793 42-250 R235A): T1 sequence (P30793 42-250) with R194A
In words: enzyme kinetics, H2NTP formation at 330 nm, R235A-GCH1. In kind it is biochemical. The note with it: in the absence and presence of GFRP; 0.1 mM BH4. On the procedure: as §5, §6

Test [4] concerns the target T1, GCH1. In words: STD NMR assay with active site reporter ligand GTP. Type of test: binding. The conditions noted are these: in the presence of allosteric regulator.
From the text: as §3, §4
STD NMR enhancement of substrate GTP in the presence of allosteric regulator BH4 (red). This screening assay allows for the identification of allosteric binders. C) Correlation of activity in functional NMR assay and STD NMR enhancement of active site reporter ligand GTP.
(1 picture or pasted object on this page, not shown here)

Residue numbers refer to the chain shown, from its start.

For orientation: Kd means the equilibrium constant for the complex coming apart. A low value points to higher affinity. As to `Nc1nc2c(ccn2C2OC(COP(=O)(O)OP(=O)(O)OP(=O)(O)O)C(O)C2O)c(=O)[nH]1` (stereo not drawn) [7-deaza-GTP], the Kd on GCH1 [1] is 798 µM; at GCH1 F122A mutant, 669 µM; at GCH1 [2] (KD (STD-NMR, initial slopes), proton H1', 5mM BH4), 52 µM; on GCH1 [2] (KD (STD-NMR, initial slopes), proton H1', no BH4), 326 µM; on GCH1 [2] (KD (STD-NMR, initial slopes), proton H7, 5mM BH4), 157 µM; at GCH1 [2] (KD (STD-NMR, initial slopes), proton H7, no BH4), 977 µM. Moreover, the Kd on GCH1 [2] (KD, BH4-bound inhibited hGCH1) is around 100 µM; at GCH1 [2] (KD, free, active hGCH1), around 600 µM. The “increase of maximum STD amplification (Amax), factor” value at GCH1 [2] (BH4-inhibited GCH1 compared to the uninhibited enzyme) is “about 3”. Besides, the “factor of tighter binding to the allosterically inhibited GCH1” value at GCH1 [2] (BH4-inhibited vs uninhibited GCH1) is listed as around 6.
In the case of `C[C@H](O)[C@H](O)[C@H]1CNc2nc(N)[nH]c(=O)c2N1` [BH4, tetrahydrobiopterin], at GCH1 [3], the “formate production in presence of inhibitor” value is given as “No H2NTP or formate is produced”. Further, at GCH1 WT, the “H2NTP production in presence of inhibitor” value is reported as “No H2NTP or formate is produced”. For the same compound, the “inhibition of enzyme activity by BH4” value on R241A-GCH1 and at R235A-GCH1 was “cannot be inhibited” throughout. Besides, the “effect on STD NMR signal of substrate GTP (allosteric regulator)” value at GCH1 [4] is “enhancement”.
